Measured values reported in US20040171680A1, “Treating Syndrome X with substituted tetralins and indanes” (priority 2002, published 2004).
Where two headings read alike, the source gives them in different places.

Tests used:
Assay type in all cases: cell-based
PPARα = target: T1, PPARα (Rattus norvegicus, UniProt P37230); assay: HD bDNA Assay (HD gene induction)
T1 construct: H4IIE rat hepatoma cell line was obtained from ATCC; host or cells: H4IIE rat hepatoma cells
T1 sequence (P37230 1-468): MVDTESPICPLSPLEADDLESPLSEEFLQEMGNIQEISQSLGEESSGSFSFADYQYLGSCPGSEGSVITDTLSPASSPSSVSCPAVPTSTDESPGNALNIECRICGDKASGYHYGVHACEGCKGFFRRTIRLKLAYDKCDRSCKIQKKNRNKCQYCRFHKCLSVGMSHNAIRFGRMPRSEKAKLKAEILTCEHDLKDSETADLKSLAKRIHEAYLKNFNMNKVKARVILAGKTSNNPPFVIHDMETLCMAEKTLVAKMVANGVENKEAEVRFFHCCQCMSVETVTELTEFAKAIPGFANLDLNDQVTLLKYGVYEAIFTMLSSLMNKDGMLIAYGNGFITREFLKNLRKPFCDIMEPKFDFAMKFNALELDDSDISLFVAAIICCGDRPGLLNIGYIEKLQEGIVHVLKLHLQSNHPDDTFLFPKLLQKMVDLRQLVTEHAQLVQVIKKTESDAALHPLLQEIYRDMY
Method: HD bDNA Assay H4IIE rat hepatoma cell line was obtained from ATCC. Cells were cultured in 175 cm^2 tissue culture flask or seeded in 96-well plate with (high serum content, 10% fetal bovine serum and 10% calf serum) culture medium and maintained at 37° C. and 5% CO2 throughout study. Twenty-four hours after the initial seeding of the 96-well plate by hand (approximate 100,000/well), the HD gene induction assay was initiated. Media was removed and replaced with 100 ul of low serum culture media (5% charcoal/dextran treated calf serum) containing vehicle (DMSO) or test compounds or standard. Cells returned to incubator for 24 hours culture. At the termination of the challenge, 50 ul lysis buffer with HD gene specific CE, LE, BL probes was added directly into each well to initiate the bDNA HD mRNA assay. The branched DNA assay was performed according to the manufacturer's protocol (Bayer Diagnostics; Emeryville. Calif.). At the end of the assay, the luminescence was quantitated in Dynex MLX microtiter plate luminometer. EC50's were determined by non-linear regression with a sigmoidal fit utilizing Graphpad Prism.

PPARγ = target: T2, PPARγ (Homo sapiens, UniProt P37231); assay: aP2 Assay for PPAR gamma Agonists (bDNA aP2 mRNA in preadipocytes); conditions: fold induction; PPARγ standard: FI = 70.3
T2 construct: Following the challenge of the preadipocytes, cells may be lysed with lysis buffer; endogenous in cells; host or cells: preadipocytes
T2 sequence (P37231 1-505): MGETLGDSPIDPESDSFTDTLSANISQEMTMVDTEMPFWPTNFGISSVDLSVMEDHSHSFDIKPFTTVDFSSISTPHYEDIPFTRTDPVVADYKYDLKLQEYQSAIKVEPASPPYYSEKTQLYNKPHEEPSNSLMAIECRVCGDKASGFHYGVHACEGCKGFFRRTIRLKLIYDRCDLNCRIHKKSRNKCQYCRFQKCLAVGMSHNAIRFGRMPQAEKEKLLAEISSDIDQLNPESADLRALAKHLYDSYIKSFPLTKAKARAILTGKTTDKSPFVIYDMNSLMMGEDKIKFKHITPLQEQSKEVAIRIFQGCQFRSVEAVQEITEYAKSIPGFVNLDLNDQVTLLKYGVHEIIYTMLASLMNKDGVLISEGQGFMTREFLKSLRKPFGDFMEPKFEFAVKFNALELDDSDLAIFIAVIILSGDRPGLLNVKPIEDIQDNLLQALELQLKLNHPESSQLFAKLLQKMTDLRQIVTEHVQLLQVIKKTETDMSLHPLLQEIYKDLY
From the text: aP2 Assay for PPAR gamma Agonists
The procedure is described in detail in Burris et al., Molecular Endocrinology, 1999, 13:410, which is hereby incorporated by reference in its entirety, and aP2 assay results of agonist intrinsic activity may be presented as fold increase over vehicle in induction of aP2 mRNA production.
Twenty-four hours after the initial seeding of the 96-well plates by hand (around 20,000/well), the differentiation assay may be initiated. Medium may be removed and replaced with […] of differentiation medium containing vehicle (DMSO) or test compounds. Cells may be returned to incubator for 24 hours culture. At the termination of the challenge, medium may be removed and 100 ul of lysis buffer may be added to initiate the bDNA aP2 mRNA assay. The branched DNA assay may be performed according to the manufacturer's protocol (Bayer Diagnostics; Emeryville, Calif.). Result may be expressed as the fold increase of aP2 mRNA production activated over vehicle controls. EC50's and Emax may be determined by non-linear regression with a sigmoidal fit curve.
Following the challenge of the preadipocytes, cells may be lysed with lysis buffer (Bayer Diagnostics) containing the aP2 oligonucleotides. After a 15 minute incubation at 53° C. or 30 minutes at 37° C. incubator, 70 ul of the lysis buffer from each well may be added to a corresponding capture well (preincubated with 70 ul of blocking buffer (Bayer Diagnostics)). The capture plate may be incubated overnight at 53° C. in a plate incubator (Bayer Diagnostics). After this incubation, the bDNA and labeled probes may be annealed as directed by the manufacturer. Following a 30-minute incubation with the luminescent alkaline phosphatase substrate, dioxitane, the luminescence may be quantitated in a Dynex MLX microtiter plate luminometer. Oligonucleotide probes designed to anneal to the aP2 mRNA and function in the bDNA mRNA detection system are designed with ProbeDesigner software (Bayer Diagnostics). This software package analyzes a target sequence of interest with a series of algorithms in order to determine which regions of the sequence can perform as locations for capture, label, or spacer probe annealing. The sequences of the oligonucleotides are as follows: […]

PPARδ = target: T3, PPARδ (Homo sapiens, UniProt Q03181); assay: Transfection Assay for PPARδ Receptors (PPAR-Gal4 / Gal4-Luciferase reporter in HEK293 cells); conditions: for PPARδ FI: fold induction, PPARδ standard: FI = 36.1; for EC50: values in square brackets
T3 construct: a Gal4-Luciferase reporter is co-transfected
T3 sequence (Q03181 171-441 limits assumed): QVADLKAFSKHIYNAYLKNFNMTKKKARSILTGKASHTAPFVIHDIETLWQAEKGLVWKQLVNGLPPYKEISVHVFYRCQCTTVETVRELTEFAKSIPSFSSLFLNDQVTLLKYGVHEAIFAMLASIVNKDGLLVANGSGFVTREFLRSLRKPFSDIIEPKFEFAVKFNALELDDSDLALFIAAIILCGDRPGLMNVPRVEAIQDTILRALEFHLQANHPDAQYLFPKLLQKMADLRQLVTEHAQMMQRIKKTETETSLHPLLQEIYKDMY
Method: Transfection Assay for PPARδ Receptors
HEK293 cells were grown in DMEM/F-12 Media supplemented with 10% FBS and glutamine (GIBCOBRL). The cells were co-transfected with DNA for PPAR-Gal4 receptor and Gal4-Luciferase Reporter using the DMRIE-C Reagent. On the following day, the DNA-containing medium were replaced with 5% Charcoal treated FBS growth medium. After six hours, cells were seeded in 96 well plate and incubated at 37° C. in CO2 incubator overnight. Cells were challenged by test compounds and incubated for 24 hours at 37° C. in 5% CO2 incubator. Luciferase activity was assayed using the Steady-Glo Luciferase Assay Kit from Promega. DMRIE-C Reagent was purchased from GIBCO Cat. No.10459-014. OPTI-MEM I Reduced Serum Medium was purchased from GIBCO Cat. No. 31985. Steady-Glo Luciferase Assay Kit was obtained from Promega Part# E254B.

[1] = in section F, target not named there, values match the PPARα column, read-out: EC50
[2] = H4IIE rat hepatoma cells, 24 hours, read-out: PPARα EC50

SMILES | EC50 (PPARα; [1]) | PPARγ FI (PPARγ) | PPARδ FI (PPARδ) | EC50 (PPARα; [2]) | EC50 (PPARδ)
CCCN(C(=O)Nc1ccc(OC(F)(F)F)cc1)C1Cc2ccc(SC(C)(C)C(=O)O)cc2C1 (stereo not drawn) [Example 16, 2-Methyl-2-{2-[1-propyl-3-(4-trifluoromethoxyphenyl)ureido]indan-5-ylsulfanyl}propionic acid] | 158 nM | 0.37 | – | – | –
CCCCCCN(C(=O)Nc1ccc(SC(F)(F)F)cc1)C1Cc2ccc(SC(C)(C)C(=O)O)cc2C1 (stereo not drawn) [Example 15, 2-Methyl-2-{2-[1-hexyl-3-(4-trifluoromethylsulfanylphenyl)ureido]indan-5-ylsulfanyl}propionic acid] | 123 nM | – | 1.2 | – | –
CCCN(C(=O)Nc1ccc(OC(F)(F)F)cc1)C1CCc2ccc(SC(C)(C)C(=O)O)cc2C1 (stereo not drawn) [Example 46, 2-Methyl-2-{7-[1-propyl-3-(4-trifluoromethoxyphenyl)ureido}-5,6,7,8-tetrahydronaphthalen-2-ylsulfanyl}propionic acid] | – | – | 6.0 | 1390 nM | –
CCCN(C(=O)Nc1ccc(OC)cc1)C1Cc2ccc(SC(C)(C)C(=O)O)cc2C1 (stereo not drawn) [Example 32, 2-{2-[3-(4-Methoxyphenyl)-1-propylureido]indan-5-ylsulfanyl}-2-methylpropionic acid] | – | – | 1.5 | 497 nM | –
CCN(C(=O)Nc1ccc(OC(F)(F)F)cc1)C1CCc2cc(SC(C)(C)C(=O)O)c(C)cc2C1 (stereo not drawn) [Example 53, 2-{6-[1-Ethyl-3-(4-trifluoromethoxyphenyl)ureido]-3-methyl-5,6,7,8-tetrahydronaphthalen-2-ylsulfanyl}-2-methylpropionic acid] | 42 nM | – | – | – | 873 nM
CC(C)(Sc1ccc2c(c1)CC(N(CCCC1CCCC1)C(=O)Nc1ccc(OC(F)(F)F)cc1)C2)C(=O)O (stereo not drawn) [Example 28, 2-{2-[1-(3-Cyclopentylpropyl)-3-(4-trifluoromethoxyphenyl)ureido]indan-5-ylsulfanyl}-2-methylpropionic acid] | – | – | 8.2 | 323 nM | –
CCCCCN(C(=O)Nc1ccc2ccccc2c1)C1Cc2ccc(SC(C)(C)C(=O)O)cc2C1 (stereo not drawn) [Example 39, 2-Methyl-2-[2-(3-naphthalen-2-yl-1-pentylureido)indan-5-ylsulfanyl]propionic acid] | – | – | 9.3 | 1000 nM | –
CCN(C(=O)Nc1cccc(OC(F)(F)F)c1)C1Cc2ccc(SC(C)(C)C(=O)O)cc2C1 (stereo not drawn) [Example 26, 2-{2-[1-Ethyl-3-(3-trifluoromethoxyphenyl)ureido]indan-5-ylsulfanyl}-2-methylpropionic acid] | – | – | 2.1 | 130 nM | –
CCN(C(=O)Nc1ccc(OC(F)(F)F)cc1)C1CCc2cc(SC(C)(C)C(=O)O)c(OC)cc2C1 (stereo not drawn) [Example 47, 2-{6-[1-Ethyl-3-(4-trifluoromethoxyphenyl)ureido]-3-methoxy-5,6,7,8-tetrahydronaphthalen-2-ylsulfanyl}-2-methylpropionic acid] | 45 nM | – | – | – | > 3000 nM
CCN(C(=O)Nc1ccc(OC(F)(F)F)c(Br)c1)C1Cc2ccc(SC(C)(C)C(=O)O)cc2C1 (stereo not drawn) [Example 25, 2-{2-[3-(3-Bromo-4-trifluoromethoxyphenyl)-1-ethylureido]indan-5-ylsulfanyl}-2-methylpropionic acid] | – | – | 4.5 | 208 nM | –
CCN(C(=O)Nc1ccc(OC(F)(F)F)cc1)C1CCc2cc(SC(C)(C)C(=O)O)c(OC(F)(F)F)cc2C1 (stereo not drawn) [Example 54, 2-{6-[1-Ethyl-3-(4-trifluoromethoxyphenyl)ureido]-3-trifluoromethoxy-5,6,7,8-tetrahydronaphthalen-2-ylsulfanyl}-2-methylpropionic acid] | 131 nM | – | – | – | > 3000 nM
CCN(C(=O)Nc1ccc(OC(F)(F)F)cc1)C1CCc2cc(SC(C)(C)C(=O)O)c(-c3ccccc3)cc2C1 (stereo not drawn) [Example 55, 2-{6-[1-Ethyl-3-(4-trifluoromethoxyphenyl)ureido]-3-phenyl-5,6,7,8-tetrahydronaphthalen-2-ylsulfanyl}-2-methylpropionic acid] | 545 nM | – | – | – | 1720 nM
CCN(C(=O)Nc1ccc(OC(F)(F)F)cc1)C1CCc2cc(SC(C)(C)C(=O)O)c(Br)cc2C1 (stereo not drawn) [Example 52, 2-{6-[1-Ethyl-3-(4-trifluoromethoxyphenyl)ureido]-3-bromo-5,6,7,8-tetrahydronaphthalen-2-ylsulfanyl}-2-methylpropionic acid] | 17 nM | – | – | – | > 3000 nM
CCCN(C(=O)Nc1cc(C)cc(C)c1)C1Cc2ccc(SC(C)(C)C(=O)O)cc2C1 (stereo not drawn) [Example 33, 2-{2-[3-(3,5-Dimethylphenyl)-1-propylureido]indan-5-ylsulfanyl}-2-methylpropionic acid] | – | – | 0.8 | 537 nM | –
CCN(C(=O)Nc1ccc(OC(F)(F)F)cc1)C1CCc2cc(OC(C)(C)C(=O)O)ccc2C1 (stereo not drawn) [Example 48, 2-{6-[1-Ethyl-3-(4-trifluoromethoxyphenyl)ureido]-5,6,7,8-tetrahydronaphthalen-2-yloxy}-2-methylpropionic acid] | – | – | – | 14 nM | > 3000 nM
